Non-standard residues stand in square brackets, D forms with d. Residues, ends and D or L forms follow the SMILES beside them. *: point of attachment. dPhe(4-NHCONH2) = NC(=O)Nc1ccc(C[C@@H](N)C(=O)O)cc1; Dihydroorotyl(S) = O=C1C[C@@H](C(=O)*)NC(=O)N1; dPhe(4-Cl) = N[C@H](Cc1ccc(Cl)cc1)C(=O)O; Phe(4-NH2) = Nc1ccc(C[C@H](N)C(=O)O)cc1; d2Nal = N[C@H](Cc1ccc2ccccc2c1)C(=O)O; Lys(iPr) = CC(C)NCCCC[C@H](N)C(=O)O; d3Pal = N[C@H](Cc1cccnc1)C(=O)O
Assay type: physicochemical
From the text: Various organic solvents were screened for the maximal solubility of DgA-DS. […] Other solvents tested include-benzyl alcohol, PEG 300, propylene carbonate, triacetin, triethyl citrate, ethyl acetate, and benzyl benzoate.
Bulk solution: To produce the drug/solvent bulk solution comprising the active pharmaceutical ingredient (DgA or DgC), the desired amount of the DgA-DS or DgC-DS was combined with the solvent NMP or DMSO or combination of solvents with or without co-solvent or other additives, in the indicated amounts (see individual experiments below). The API and solvent were combined in a glass vial or jar and blanketed with nitrogen. Jars were mixed using the jar mill, Turbula, or shaker at room temperature until homogeneous. DgA or DgC are very soluble in NMP or DMSO and can load higher concentrations (at least 40% w/w).

| Compound | concentration that can be loaded (solubility) | solubility | solubility capacity of degarelix |
| --- | --- | --- | --- |
| CC(=O)N[C@H](Cc1ccc2ccccc2c1)C(=O)N[C@H](Cc1ccc(Cl)cc1)C(=O)N[C@H](Cc1cccnc1)C(=O)N[C@@H](CO)C(=O)N[C@@H](Cc1ccc(NC(=O)[C@@H]2CC(=O)NC(=O)N2)cc1)C(=O)N[C@H](Cc1ccc(NC(N)=O)cc1)C(=O)N[C@@H](CC(C)C)C(=O)N[C@@H](CCCCNC(C)C)C(=O)N1CCC[C@H]1C(=O)N[C@H](C)C(N)=O [DgA-DS, degarelix acetate] (Ac-[d2Nal][dPhe(4-Cl)][d3Pal]S[Phe(4-NH2)](Dihydroorotyl(S))[dPhe(4-NHCONH2)]L[Lys(iPr)]P[dA]-NH2) | at least 40 % w/w | either insoluble or has solubility limits much lower than NMP, DMSO or DMA | 35-40 % w/w |
| degarelix citrate [DgC] | at least 40 % w/w | – | – |
